From patent publication US10898481B2 (priority 2018, dated 2021)

Experiments:
[1] = molecular target: hADORA1/CHO (hA1 expressing) cells (Homo sapiens (Human), UniProt P30542); experiment: cell-based; conditions: FLIPR inhibition, 10 μM adenosine, read-out: cAMP & FLIPR IC50 (nM) hA1
hA2b/CHO = hA2b/CHO (Homo sapiens (Human), UniProt P29275); experiment: cAMP inhibition assay in hA2b/CHO cells, 10 μM adenosine; format: cell-based; conditions: read-out: cAMP & FLIPR IC50 (nM) hA2b;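 note: cells exposed to compound 30 min at 37 °C, then stimulated with adenosine a further 30 min, cAMP read after 60 min at room temperature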
Chain of hA2b/CHO (P29275 whole entry): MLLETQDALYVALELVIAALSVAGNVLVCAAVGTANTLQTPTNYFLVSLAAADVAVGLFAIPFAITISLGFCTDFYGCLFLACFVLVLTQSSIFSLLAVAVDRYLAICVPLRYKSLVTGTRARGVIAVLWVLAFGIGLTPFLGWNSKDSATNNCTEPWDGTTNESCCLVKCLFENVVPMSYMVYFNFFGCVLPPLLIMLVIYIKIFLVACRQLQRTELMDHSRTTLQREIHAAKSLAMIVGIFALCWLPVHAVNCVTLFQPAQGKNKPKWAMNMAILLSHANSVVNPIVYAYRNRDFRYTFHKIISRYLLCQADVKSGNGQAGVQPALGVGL
Protocol: (§1) hA2a/CHO, hA2b/CHO, hA3/CHO and mA2a/CHO (Genscript) were plated at 5×10^3 cells/well into 384-well polystyrene plates at the day of experiment. Compounds were pre-incubated with cells for 30 min at 37° C., 5% CO2. Then 10 μM adenosine was added to the cells and incubated for 30 min at 37° C., 5% CO2. Detection reagent (CISBIO) was added and the plates were incubated for 60 min at room temperature. The signal was captured by Envision.

mA2a/CHO = mA2a/CHO (Mus musculus (Mouse), UniProt Q60613); experiment: cAMP inhibition assay in mA2a/CHO cells, 10 μM adenosine; format: cell-based; conditions: read-out: cAMP & FLIPR IC50 (nM) mA2a;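 note: compounds preincubated 30 min at 37 °C before the adenosine challenge, then 30 min further stimulation, readout after 60 min detection reagent incubation at room temperature in 384-well plates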
Chain of mA2a/CHO (Q60613 whole entry): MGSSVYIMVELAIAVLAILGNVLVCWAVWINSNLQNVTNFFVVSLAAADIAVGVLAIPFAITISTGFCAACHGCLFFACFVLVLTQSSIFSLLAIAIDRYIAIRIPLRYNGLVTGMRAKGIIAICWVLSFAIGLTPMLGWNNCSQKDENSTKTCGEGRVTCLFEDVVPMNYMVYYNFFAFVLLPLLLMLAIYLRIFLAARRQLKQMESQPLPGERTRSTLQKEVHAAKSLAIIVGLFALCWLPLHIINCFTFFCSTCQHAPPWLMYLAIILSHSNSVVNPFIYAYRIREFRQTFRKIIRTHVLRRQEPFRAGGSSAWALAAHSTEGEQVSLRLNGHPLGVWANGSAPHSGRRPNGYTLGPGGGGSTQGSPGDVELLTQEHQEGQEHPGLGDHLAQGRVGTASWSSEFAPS
Protocol: as §1

hA2a/CHO = hA2a/CHO (Homo sapiens (Human), UniProt P29274); experiment: cAMP inhibition assay in hA2a/CHO cells, 10 μM adenosine; format: cell-based; conditions: read-out: cAMP & FLIPR IC50 (nM) hA2a;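 note: compounds added to cells 30 min ahead of adenosine, then a further 30 min at 37 °C with adenosine before cAMP detection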
Chain of hA2a/CHO (P29274 whole entry): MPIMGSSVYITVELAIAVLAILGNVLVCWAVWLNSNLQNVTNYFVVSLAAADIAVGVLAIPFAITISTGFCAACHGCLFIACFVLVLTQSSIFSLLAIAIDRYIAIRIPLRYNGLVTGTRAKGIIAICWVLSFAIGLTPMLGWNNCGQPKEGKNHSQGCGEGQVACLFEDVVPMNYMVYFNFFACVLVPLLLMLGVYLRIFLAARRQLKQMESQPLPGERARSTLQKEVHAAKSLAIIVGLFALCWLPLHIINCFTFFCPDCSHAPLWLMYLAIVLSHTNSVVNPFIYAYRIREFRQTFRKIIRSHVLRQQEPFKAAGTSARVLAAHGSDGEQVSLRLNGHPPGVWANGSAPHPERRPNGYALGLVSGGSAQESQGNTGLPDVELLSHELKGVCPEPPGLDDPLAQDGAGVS
Protocol: as §1

Chain of hADORA1/CHO (hA1 expressing) cells (P30542 whole entry): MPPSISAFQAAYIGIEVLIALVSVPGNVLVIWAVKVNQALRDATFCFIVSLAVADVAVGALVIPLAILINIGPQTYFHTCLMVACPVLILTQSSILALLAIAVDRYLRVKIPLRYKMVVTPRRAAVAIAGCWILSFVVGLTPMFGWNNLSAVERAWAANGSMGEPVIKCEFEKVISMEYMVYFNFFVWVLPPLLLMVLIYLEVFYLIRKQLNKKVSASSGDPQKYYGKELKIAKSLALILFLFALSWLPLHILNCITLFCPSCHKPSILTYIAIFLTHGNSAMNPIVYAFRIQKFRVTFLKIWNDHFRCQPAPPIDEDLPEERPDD

Structure (SMILES): Cc1cccc(CNC(=O)c2nc(-c3ccc(=O)n(C)c3)c(-c3ncco3)nc2N)n1 [Example 18, 3-amino-6-(1-methyl-6-oxo-1,6-dihydropyridin-3-yl)-N-[(6-methylpyridin-2-yl)methyl]-5-(1,3-oxazol-2-yl)pyrazine-2-carboxamide]
- IC50 [1]: 1150 nM
- IC50 (hA2b/CHO): ≥ 10000 nM
- IC50 (mA2a/CHO): 116 nM
- IC50 (hA2a/CHO): 105 nM

Structure (SMILES): COCCOc1cccnc1CNC(=O)c1nc(-c2ccc3ncn(C)c3c2)c(-c2ccc(F)cc2)nc1N [Example 114, 3-amino-5-(4-fluorophenyl)-N-[[3-(2-methoxyethoxy)pyridin-2-yl]methyl]-6-(1-methyl-1H-1,3-benzodiazol-6-yl)pyrazine-2-carboxamide]
- IC50 [1]: 83 nM
- IC50 (hA2b/CHO): 170 nM
- IC50 (mA2a/CHO): 1.5 nM
- IC50 (hA2a/CHO): 0.7 nM

Structure (SMILES): COc1ccccc1C(=O)NCc1nc(-c2cc(C)nc(C)c2)c(-c2ccc(F)cc2)nc1N [Example 86, N-((3-amino-6-(2,6-dimethylpyridin-4-yl)-5-(4-fluorophenyl)pyrazin-2-yl)methyl)-2-methoxybenzamide]
- IC50 [1]: 539 nM
- IC50 (hA2b/CHO): 7830 nM
- IC50 (mA2a/CHO): 192 nM
- IC50 (hA2a/CHO): 5 nM

Structure (SMILES): Cc1cnc2ccc(-c3nc(C(=O)N4CC[C@@H](N(C)C)C4)c(N)nc3-c3ccc(F)cc3)cn12 [Example 203-1, (R)-(3-amino-5-(4-fluorophenyl)-6-(3-methylimidazo[1,2-a]pyridin-6-yl)pyrazin-2-yl)(3-(dimethylamino)pyrrolidin-1-yl)methanone]
- IC50 [1]: 91 nM
- IC50 (hA2b/CHO): > 10000 nM
- IC50 (mA2a/CHO): 161 nM
- IC50 (hA2a/CHO): 15 nM

Structure (SMILES): COc1cccnc1CNC(=O)c1nc(-c2cc(C)nc(C)c2)c(-c2ccc(F)cc2)nc1N [Example 71, 3-amino-6-(2,6-dimethylpyridin-4-yl)-5-(4-fluorophenyl)-N-((3-methoxypyridin-2-yl)methyl)pyrazine-2-carboxamide]
- IC50 [1]: 388 nM
- IC50 (hA2b/CHO): 1940 nM
- IC50 (mA2a/CHO): 1250 nM
- IC50 (hA2a/CHO): 64 nM

Structure (SMILES): COc1cccc(F)c1CNC(=O)c1nc(-c2cc(C)nc(C)c2)c(-c2ccc(F)cc2)nc1N [Example 90, 3-amino-6-(2,6-dimethylpyridin-4-yl)-N-(2-fluoro-6-methoxybenzyl)-5-(4-fluorophenyl)pyrazine-2-carboxamide]
- IC50 (hA2b/CHO): 781 nM
- IC50 (mA2a/CHO): 95 nM
- IC50 (hA2a/CHO): 4 nM

Structure (SMILES): CCn1cc(-c2nc(C(=O)NCc3ccccc3OC)c(N)nc2-c2ccc(F)cc2)ccc1=O [Example 69, 3-amino-6-(1-ethyl-6-oxo-1,6-dihydro-pyridin-3-yl)-5-(4-fluorophenyl)-N-(2-methoxybenzyl)pyrazine-2-carboxamide]
- IC50 (hA2b/CHO): 213 nM
- IC50 (mA2a/CHO): 20 nM
- IC50 (hA2a/CHO): 15 nM

Structure (SMILES): Cc1cc(-c2nc(C(=O)NCc3c(F)cccc3F)c(N)nc2-c2ccc(C)o2)cc(C)n1 [Example 62, 3-amino-N-(2,6-difluorobenzyl)-6-(2,6-dimethylpyridin-4-yl)-5-(5-methylfuran-2-yl)pyrazine-2-carboxamide]
- IC50 (hA2b/CHO): ≥ 10000 nM
- IC50 (mA2a/CHO): 28 nM
- IC50 (hA2a/CHO): 1.8 nM

Structure (SMILES): Cc1cc(-c2nc(C(=O)Nc3ccccc3OC(F)F)c(N)nc2-n2ccc(C)n2)cc(N)n1 [Example 60, 3-amino-6-(2-amino-6-methylpyridin-4-yl)-N-(2-(difluoromethoxy)phenyl)-5-(3-methyl-1H-pyrazol-1-yl)pyrazine-2-carboxamide]
- IC50 (hA2b/CHO): ≥ 10000 nM
- IC50 (mA2a/CHO): 150 nM
- IC50 (hA2a/CHO): 24 nM

Structure (SMILES): Nc1nc(-c2ccc(F)cc2)c(-c2ccc(=O)n(C3COC3)c2)nc1C(=O)NCc1c(F)cccc1F [Example 77]
- IC50 (hA2b/CHO): 358 nM
- IC50 (mA2a/CHO): 26 nM
- IC50 (hA2a/CHO): 17 nM

Structure (SMILES): COc1ccc(F)cc1CNC(=O)c1nc(-c2cc(C)nc(C)c2)c(-c2ccc(F)cc2)nc1N [Example 92, 3-amino-6-(2,6-dimethylpyridin-4-yl)-N-(5-fluoro-2-methoxybenzyl)-5-(4-fluorophenyl)pyrazine-2-carboxamide]
- IC50 (hA2b/CHO): ≥ 10000 nM
- IC50 (mA2a/CHO): 216 nM
- IC50 (hA2a/CHO): 41 nM

Structure (SMILES): Cc1cc(-c2nc(C(=O)NCc3ccccc3OC(F)F)c(N)nc2-c2ccc(F)cc2)cc(C)n1 [Example 91, 3-amino-N-(2-(difluoromethoxy)benzyl)-6-(2,6-dimethylpyridin-4-yl)-5-(4-fluorophenyl)pyrazine-2-carboxamide]
- IC50 (hA2b/CHO): 1420 nM
- IC50 (mA2a/CHO): 72 nM
- IC50 (hA2a/CHO): 8.9 nM

Structure (SMILES): COc1ccccc1CNC(=O)c1nc(-c2cc(C)nc(C)c2)c(-c2ccc(F)cc2)nc1N [Example 89, 3-amino-6-(2,6-dimethylpyridin-4-yl)-5-(4-fluorophenyl)-N-(2-methoxybenzyl)pyrazine-2-carboxamide]
- IC50 (hA2b/CHO): 5620 nM
- IC50 (mA2a/CHO): 297 nM
- IC50 (hA2a/CHO): 17 nM

Structure (SMILES): COc1ccccc1CNC(=O)c1nc(-c2cc(C)c(=O)n(C)c2)c(-c2ccc(F)cc2)nc1N [Example 82, 3-amino-6-(1,5-dimethyl-6-oxo-1,6-dihydropyridin-3-yl)-5-(4-fluorophenyl)-N-(2-methoxybenzyl)pyrazine-2-carboxamide]
- IC50 (hA2b/CHO): 276 nM
- IC50 (mA2a/CHO): 59 nM
- IC50 (hA2a/CHO): 19 nM

Structure (SMILES): Cc1cc(-c2nc(C(=O)NCc3ncccc3F)c(N)nc2-c2ccc(F)cc2)cc(C)n1 [Example 1, 3-amino-6-(2,6-dimethylpyridin-4-yl)-5-(4-fluorophenyl)-N-((3-fluoropyridin-2-yl)methyl)pyrazine-2-carboxamide]
- IC50 (hA2b/CHO): ≥ 10000 nM
- IC50 (mA2a/CHO): 1060 nM
- IC50 (hA2a/CHO): 151 nM

Structure (SMILES): COc1ncccc1CNC(=O)c1nc(-c2cc(C)nc(C)c2)c(-c2ccc(F)cc2)nc1N [Example 66, 3-amino-6-(2,6-dimethylpyridin-4-yl)-5-(4-fluorophenyl)-N-((2-methoxypyridin-3-yl)methyl)pyrazine-2-carboxamide]
- IC50 (hA2b/CHO): ≥ 10000 nM
- IC50 (mA2a/CHO): 730 nM
- IC50 (hA2a/CHO): 107 nM

Structure (SMILES): Cc1cc(-c2nc(C(=O)NCc3c(F)cccc3F)c(N)nc2-c2cnn(C)c2)cc(C)n1 [Example 64, 3-amino-N-(2,6-difluorobenzyl)-6-(2,6-dimethylpyridin-4-yl)-5-(1-methyl-1H-pyrazol-4-yl)pyrazine-2-carboxamide]
- IC50 (hA2b/CHO): ≥ 10000 nM
- IC50 (mA2a/CHO): ≥ 10000 nM
- IC50 (hA2a/CHO): 52 nM

Structure (SMILES): COc1ccccc1CNC(=O)c1nc(-c2cc(C)nc(Cl)c2)c(-c2ccc(F)cc2)nc1N [Example 68, 3-amino-6-(2-chloro-6-methylpyridin-4-yl)-5-(4-fluorophenyl)-N-(2-methoxy-benzyl)pyrazine-2-carboxamide]
- IC50 (hA2b/CHO): 952 nM
- IC50 (mA2a/CHO): 64 nM
- IC50 (hA2a/CHO): 7.5 nM

Structure (SMILES): Cc1cnc2ccc(-c3nc(CNC(=O)[C@H]4CCCN4C)c(N)nc3-c3ccc(F)cc3)cn12 [Example 157, (2R)—N-[[3-amino-5-(4-fluorophenyl)-6-[3-methylimidazo[1,2-a]pyridin-6-yl]pyrazin-2-yl]methyl]-1-methylpyrrolidine-2-carboxamide]
- IC50 (hA2b/CHO): 59 nM
- IC50 (mA2a/CHO): 2.9 nM
- IC50 (hA2a/CHO): 0.3 nM

Structure (SMILES): Cc1cnc2ccc(-c3nc(C(=O)NCC4CCCCN4C)c(N)nc3-c3ncco3)cn12 (single isomer, unassigned; isomer 2) [Example 125, 3-amino-6-(3-methylimidazo[1,2-a]pyridin-6-yl)-N-((1-methylpiperidin-2-yl)methyl)-5-(oxazol-2-yl)pyrazine-2-carboxamide (isomer 2)]
- IC50 (hA2b/CHO): ≥ 10000 nM
- IC50 (mA2a/CHO): ≥ 10000 nM
- IC50 (hA2a/CHO): 1440 nM
